According to PubChem BioAssay AID1259408 (Genetic Toxicology Data Bank (GENE-TOX), 2018):
The source made the active and inactive calls. The rule behind the calls is not given here. Numbered stars: 1 amine (or outer) side, 2 acyl side, 3 side chain; on linkers, the order of the positions; unused ones are H or OH. Bridge positions count the residues as written; N and C are the ends. Square brackets hold non-standard residues; d marks the D form. Peptide text beside a SMILES is read from it. I, II: the chains in the order shown. Actinocin(9to1) = Cc1c2oc3c(C)ccc(C(=O)[*:1])c3nc-2c(C(=O)[*:2])c(N)c1=O; NMeV = CN[C@H](C(=O)O)C(C)C; Sar = CNCC(=O)O

Test system: GENE-TOX genotoxicity assays, various organisms and cells
Assay: GENE-TOX mutagenicity studies
Conditions: for call: Assay Type: In vivo carcinogenicity studies
[1] = Species/Cell Type: Salmonella typhimurium (one or more of the five standard strains: TA98, TA100, TA1535, TA1537, and TA1538), Assay Type: Histidine reverse gene mutation, Ames assay, Assay Code: SAL+*, Activation: With metabolic activation, Evaluation Type: Evaluation A (Pre-1980)
[2] = Species/Cell Type: Mammalian polychromatic erythrocytes, Assay Type: Micronucleus test, chromosome aberrations, Assay Code: MNTT, Evaluation Type: Evaluation A (Pre-1980)
[3] = Species/Cell Type: Drosophila melanogaster, Assay Type: Sex-linked recessive lethal gene mutation, Assay Code: SRLT, Evaluation Type: Evaluation A (Pre-1980)
[4] = Species/Cell Type: Allium cepa, Assay Type: Chromosome aberrations, Assay Code: ALC+D, Dose Response: With dose response, Evaluation Type: Evaluation A (Pre-1980)
[5] = Species/Cell Type: Nonhuman, Assay Code: CCG-, Evaluation Type: Evaluation A (Pre-1980)

## Cl[Se][Se]Cl
Species/Cell Type: Syrian hamster embryo (SA7/SHE) cells, Assay Type: Cell transformation, viral enhanced, Assay Code: CT7T, Evaluation Type: Evaluation A (Pre-1980)
  mutagenic call: no conclusion

## Cc1cccc2ncccc12
[1]
  mutagenic call: active; positive

## CCN(O)CC
Species/Cell Type: Drosophila melanogaster, Assay Type: Sex-linked recessive lethal gene mutation, Assay Code: SRL+, Evaluation Type: Evaluation A (Pre-1980)
  mutagenic call: active; positive
Species/Cell Type: Human diploid fibroblasts, Assay Type: Unscheduled DNA synthesis (UDS) in vitro, DNA effects, Assay Code: UDH+, Evaluation Type: Evaluation A (Pre-1980)
  mutagenic call: active; positive
[2]
  mutagenic call: no conclusion
Species/Cell Type: Rodents, Sex: Male, Assay Type: Dominant lethal test, Assay Code: DLTT, Evaluation Type: Evaluation A (Pre-1980)
  mutagenic call: no conclusion

## COc1ccc2c3c1O[C@H]1[C@@H](O)C=C[C@H]4[C@@H](C2)N(C)CC[C@@]341
[2]
  mutagenic call: no conclusion
Species/Cell Type: Mouse, Sex: Male, Assay Type: Sperm morphology, Assay Code: SPI-, Evaluation Type: Evaluation A (Pre-1980)
  mutagenic call: inactive; negative

## CCCCCCCC(=O)N(C)N=O
Species/Cell Type: Saccharomyces cerevisiae, Assay Type: Mitotic recombination or gene conversion, Assay Code: YEH+, Evaluation Type: Evaluation A (Pre-1980)
  mutagenic call: active; positive

## O=c1[nH]c(=O)c2[nH]cnc2[nH]1
[3]
  mutagenic call: no conclusion

## N[C@@H](CC(=O)O)C(=O)O
[4]
  mutagenic call: active; positive
Species/Cell Type: Human, Sex: Male, Assay Type: Sperm morphology, Assay Code: SPH+, Evaluation Type: Evaluation A (Pre-1980)
  mutagenic call: active; positive

## Cc1c2oc3c(C)ccc(C(=O)N[C@@H]4C(=O)N[C@H](C(C)C)C(=O)N5CCC[C@H]5C(=O)N(C)CC(=O)N(C)[C@@H](C(C)C)C(=O)O[C@@H]4C)c3nc-2c(C(=O)N[C@@H]2C(=O)N[C@H](C(C)C)C(=O)N3CCC[C@H]3C(=O)N(C)CC(=O)N(C)[C@@H](C(C)C)C(=O)O[C@@H]2C)c(N)c1=O (I: T[dV]P[Sar][NMeV] / II: T[dV]P[Sar][NMeV]; ester I:1-I:C, II:1-II:C; linker I:N-II:N via Actinocin(9to1))
Species/Cell Type: Allium cepa, Assay Type: Chromosome aberrations, Assay Code: ALC+, Evaluation Type: Evaluation A (Pre-1980)
  mutagenic call: active; positive
Species/Cell Type: Chinese hamster lung (V79) cells, Assay Type: Forward gene mutation at the HPRT or ouabain locus, Assay Code: V79-, Evaluation Type: Evaluation A (Pre-1980)
  mutagenic call: inactive; negative
Species/Cell Type: Chinese hamster ovary (CHO) cells, Assay Type: Forward gene mutation at the HPRT locus, Assay Code: CHO+, Evaluation Type: Evaluation B (Post-1980)
  mutagenic call: active; positive
Species/Cell Type: Drosophila melanogaster, Assay Type: Aneuploidy, sex chromosome gain, chromosome aberrations, Assay Code: DAG+F, Evaluation Type: Evaluation A (Pre-1980)
  mutagenic call: active; positive
Species/Cell Type: Drosophila melanogaster, Assay Type: Aneuploidy, whole sex chromosome loss, chromosome aberrations, Assay Code: DAC+F, Evaluation Type: Evaluation A (Pre-1980)
  mutagenic call: active; positive
[3]
  mutagenic call: no conclusion
Species/Cell Type: Escherichia coli polA (W3119 vs P3478), Assay Type: Rec-assay, DNA effects (bacterial DNA repair), Assay Code: RE1T, Evaluation Type: Evaluation A (Pre-1980)
  mutagenic call: no conclusion
Species/Cell Type: Glycine max (soybean), Assay Type: Gene mutation, Assay Code: GLM+, Evaluation Type: Evaluation A (Pre-1980)
  mutagenic call: active; positive
Species/Cell Type: Human cell culture, Assay Type: Chromosome aberrations in vitro, Assay Code: CYZ+D, Dose Response: With dose response, Evaluation Type: Evaluation A (Pre-1980)
  mutagenic call: active; positive
Species/Cell Type: Human lymphocytes, Assay Type: Sister-chromatid exchange (SCE) in vivo, Assay Code: SCY+, Evaluation Type: Evaluation B (Post-1980)
  mutagenic call: active; positive
[2]
  mutagenic call: no conclusion
Species/Cell Type: Mouse (C3H/10T1/2) cells, Assay Type: Cell transformation, Assay Code: CTH+, Evaluation Type: Evaluation A (Pre-1980)
  mutagenic call: active; positive
Species/Cell Type: Mouse, Sex: Male, Assay Type: Sperm morphology, Assay Code: SPI+, Evaluation Type: Evaluation A (Pre-1980)
  mutagenic call: active; positive
Species/Cell Type: Neurospora crassa, Assay Type: Forward gene mutation, Assay Code: NEF+, Evaluation Type: Evaluation A (Pre-1980)
  mutagenic call: active; positive
Species/Cell Type: Nonhuman, Assay Type: Chromosome aberrations in vitro, Assay Code: CY&+, Evaluation Type: Evaluation A (Pre-1980)
  mutagenic call: active; positive
Species/Cell Type: Nonhuman, Assay Code: CCG+L, Evaluation Type: Evaluation A (Pre-1980)
  call: active; positive
Species/Cell Type: Nonhuman, Assay Type: Sister-chromatid exchange (SCE) in vitro, Assay Code: SC2+, Evaluation Type: Evaluation A (Pre-1980)
  mutagenic call: active; positive
Species/Cell Type: Nonhuman, Assay Type: Sister-chromatid exchange (SCE) in vivo, Assay Code: SC3+, Evaluation Type: Evaluation B (Post-1980)
  mutagenic call: active; positive
Species/Cell Type: Saccharomyces cerevisiae, Assay Type: Forward gene mutation, Assay Code: YEFT, Evaluation Type: Evaluation A (Pre-1980)
  mutagenic call: no conclusion

## O=C(CCl)c1ccccc1
Species/Cell Type: Drosophila melanogaster, Assay Type: Sex-linked recessive lethal gene mutation, Assay Code: SRL-, Evaluation Type: Evaluation A (Pre-1980)
  mutagenic call: inactive; negative

## OC[C@@H](O)[C@@H](O)[C@H](O)[C@H](O)CO
Species/Cell Type: Escherichia coli WP2 UVRA, Assay Type: Tryptophan reverse gene mutation, Assay Code: WPU-*, Activation: With metabolic activation, Evaluation Type: Evaluation A (Pre-1980)
  mutagenic call: inactive; negative
[5]
  call: inactive; negative

## Cc1c2c(c(C)c3c1ccc1ccccc13)[C@@H]1OC1[C@@H](O)[C@@H]2O (some centres undefined)
Species/Cell Type: Chinese hamster lung (V79) cells, Assay Type: Forward gene mutation at the HPRT or ouabain locus, Assay Code: V79+, Evaluation Type: Evaluation A (Pre-1980)
  mutagenic call: active; positive

## COc1ccc(N)c(OC)c1
[5]
  call: inactive; negative

## CCCCCCCC(=O)OCC(COC(=O)CCCCCCC)OC(=O)CCCCCCC
Species/Cell Type: Mouse, Sex: Female, Assay Type: Spot test, gene mutation, Assay Code: MSTT, Evaluation Type: Evaluation A (Pre-1980)
  mutagenic call: no conclusion

## [Hg][c]1ccccc1
[4]
  mutagenic call: active; positive

## CC(C)O
Species/Cell Type: Neurospora crassa, Assay Type: Aneuploidy, chromosome aberrations, Assay Code: NEN-, Evaluation Type: Evaluation A (Pre-1980)
  mutagenic call: inactive; negative
Species/Cell Type: Syrian hamster embryo (SA7/SHE) cells, Assay Type: Cell transformation, viral enhanced, Assay Code: CT7-, Evaluation Type: Evaluation A (Pre-1980)
  mutagenic call: inactive; negative

## Cc1nc(NO)cc2[nH]c3ccccc3c12
Species/Cell Type: Human lymphocytes, Assay Type: Sister-chromatid exchange (SCE) in vitro, Assay Code: SCL+D, Dose Response: With dose response, Evaluation Type: Evaluation B (Post-1980)
  mutagenic call: active; positive
Species/Cell Type: Human, Assay Type: Sister-chromatid exchange (SCE) in vitro, Assay Code: SC1+D, Dose Response: With dose response, Evaluation Type: Evaluation B (Post-1980)
  mutagenic call: active; positive

## Cc1cc2ccccc2c2cc3ccccc3cc12
Species/Cell Type: Nonhuman, Assay Type: Sister-chromatid exchange (SCE) in vitro, Assay Code: SC2+D, Dose Response: With dose response, Evaluation Type: Evaluation B (Post-1980)
  mutagenic call: active; positive
Species/Cell Type: Nonhuman, Assay Type: Sister-chromatid exchange (SCE) in vitro, Assay Code: SC2-, Evaluation Type: Evaluation B (Post-1980)
  mutagenic call: inactive; negative
[1]
  mutagenic call: active; positive

## NC[C@@H]1OC(O[C@H]2[C@@H](O)[C@H](O[C@@H]3[C@@H](O)[C@H](N)C[C@H](N)[C@H]3O[C@H]3O[C@H](CN)[C@@H](O)[C@H](O)[C@H]3N)O[C@@H]2CO)[C@H](N)[C@@H](O)[C@@H]1O (some centres undefined)
Species/Cell Type: Rat, Sex: Male, Assay Type: Sperm morphology, Assay Code: SPA+, Evaluation Type: Evaluation A (Pre-1980)
  mutagenic call: active; positive

## ClC(Cl)c1ccccc1
Species/Cell Type: Bacillus subtilis (H17 vs M45), Assay Type: Rec-assay, spot test, DNA effects (bacterial DNA repair), Assay Code: REW+, Evaluation Type: Evaluation A (Pre-1980)
  mutagenic call: active; positive
[1]
  mutagenic call: active; positive

## CC(=O)CCCCn1c(=O)c2c(ncn2C)n(C)c1=O
Species/Cell Type: Human, Sex: Male, Assay Type: Sperm morphology, Assay Code: SPHT, Evaluation Type: Evaluation A (Pre-1980)
  mutagenic call: no conclusion

## O=C1OC2(c3cc(Br)c(O)cc3Oc3c2cc(Br)c(O)[c]3[Hg])c2ccccc21 (centres undefined)
Species/Cell Type: Saccharomyces cerevisiae, Assay Type: Aneuploidy, chromosome aberrations, Assay Code: YEN+, Evaluation Type: Evaluation A (Pre-1980)
  mutagenic call: active; positive
Species/Cell Type: Saccharomyces cerevisiae, Assay Type: Mitotic recombination or gene conversion, Assay Code: YEC+, Evaluation Type: Evaluation A (Pre-1980)
  mutagenic call: active; positive

## O=C(c1ccccc1)C(O)c1ccccc1 (centres undefined)
Species/Cell Type: Nonhuman, Assay Code: CCG-L, Evaluation Type: Evaluation A (Pre-1980)
  call: inactive; negative

## Cc1c(C)c2c(c(C)c1O)CCC(C)(CCCC(C)CCCC(C)CCCC(C)C)O2 (centres undefined)
Species/Cell Type: Human lymphocytes, Assay Type: Sister-chromatid exchange (SCE) in vitro, Assay Code: SCLT, Evaluation Type: Evaluation B (Post-1980)
  mutagenic call: no conclusion
Species/Cell Type: Human, Assay Type: Sister-chromatid exchange (SCE) in vitro, Assay Code: SC1T, Evaluation Type: Evaluation B (Post-1980)
  mutagenic call: no conclusion
